Data reported in patent publication US8003595B2, “Amino acid sequences facilitating penetration of a substance of interest into cells and/or cell nuclei” (Cellectis, priority 2000, dated 2011).
Read-outs that look alike come from different tables or passages of the source. Marks after values point to notes of the source that are not given here. Where no end group is shown, it is not given here.

Tests used:
HH9 = test: Growth inhibition by peptide-doxorubicin conjugates (MTT, 48 hours); assay type: cell-based; details: Homo sapiens, read-out: molar concentration giving 50% inhibition of the growth of the cells
Protocol: (§1) To evaluate the biological activity of peptide-doxorubicin conjugates, the inhibition of the growth of tumor cells in culture is measured.
(§2) The cells are sown the night before in 96-well plates at the rate of 10^3 cells per well.

H1299 = test: as above; assay type: cell-based; details: Homo sapiens, NCI-H1299, read-out: molar concentration giving 50% inhibition of the growth of the cells
Protocol: as §1, §2

B16.F10 = test: as above; assay type: cell-based, murine; details: Mus musculus, read-out: molar concentration giving 50% inhibition of the growth of the cells
Protocol: as §1, §2

MCF7R = test: as above; assay type: cell-based; details: Homo sapiens, read-out: molar concentration giving 50% inhibition of the growth of the cells, resistant to doxorubicin
Protocol: as §1, §2
(§3) It appears that, in vitro, the sensitivity of the cells to the peptide-doxorubicin conjugates is on the same order of magnitude as that of natural doxorubicin. The lines resistant to doxorubicin (K562R and MCF7R) require a greater concentration of doxorubicin.

K562 R = test: as above; assay type: cell-based; details: Homo sapiens, K-562R, read-out: molar concentration giving 50% inhibition of the growth of the cells, resistant to doxorubicin
Protocol: as §1, §2, §3

HH9 tumors = test: In vivo anti-tumor activity of peptide-doxorubicin conjugates; design: species or system nude mice; details: day 60, total of 120 μg of doxorubicin or the equivalent, peritumoral injection
Protocol: Nude mice are injected with 3×10^6 HH9 cells subcutaneously in the side. On day 19 after the cell implant, the tumors are measured, and 4 groups of 6 mice are formed that receive by peritumoral injection either NaCl, or natural doxorubicin, or 1047-doxorubicin, or HBP1-doxorubicin conjugates at the rate of 30 μg of doxorubicin or the equivalent of conjugates every two weeks. The tumors are measured and their volume calculated.

[1] = In vivo toxicity of peptide-doxorubicin conjugates (weight loss); details: for Weight loss: relative to mice that received NaCl; for Weight of the mice: intravenous, peptide-doxorubicin conjugates
Protocol: (§7) Injection of doxorubicin or doxorubicin-peptide by the intravenous route makes it possible to compare the toxicity of the different preparations. The estimate is made by the weight loss of the mice (5 mice per group). Two experiments were done: • Experiment 1: The mice received 200 μg per injection at 3-day intervals, or 600 μg of doxorubicin or the equivalent peptide-doxorubicin in all. The mice were weighed the day after the last injection. • Experiment 2: The mice received 2 injections of 200 -μg of doxorubicin or the peptide-doxorubicin equivalent at one week intervals, or 400 μg in all, and were weighed the day after the last injection.
(§8) The average weight loss is calculated in relation to the average weight of the mice that received NaCl.

[2] = ELISA fixation of biotinylated peptides on sensitized plates; assay type: binding; details: read-out: avidity (Kd), quantity of peptides necessary to obtain 50% fixation, Heparin; Table 5
Protocol: The capacity of peptides SEQ ID NO: 1 to 21 to attach themselves to DNA and heparin is evaluated on ELISA plates sensitized with DNA or heparin. Dilutions of biotinylated peptides are deposited on the plates and their fixation is shown using streptavidin conjugated with peroxidase. […] The avidity of each of the peptides for DNA or heparin is evaluated by the quantity (×10^−6 M) of peptides necessary to obtain 50% fixation.

Caco-2 cell monolayers = test: Integrity of the Caco-2 barrier model in presence of HBP peptides; details: Table 30; 30 μg/ml, 8 hours in HBSS; three inserts; listed as HBP7
Protocol: Caco-2 cells were seeded at a density of 160000 cells/cm^2 on a polyethylene terephtalate microporous membranes, previously coated with bovine dermal collagen, in a synthetic serum-free medium (Basal Defined Medium, BDM). Culture medium was changed three times a week and cells were maintained at 37° C. in a an atmosphere of 5% CO2 for 18 days. As a negative control to check the integrity of the Caco-2 barrier, 10^6 dpm/ml D-[^14C]-mannitol was used. […] Other controls included D-[^14C]-mannitol/L-[^3H]-Proline+HBP7 30 μg/ml and D-[^14C]-mannitol/L-[^3H]-proline+HBP10 30 μg/ml.
Trans-epithelial transport experiments were carried out. The trans-epithelial electrical resistance (TEER) was measured to check the integrity of the Caco-2 cell monolayers. The cell monolayers were preincubated in Hanks' balanced salt solution (HBSS, 5 mM glucose, supplemented with 10 mM Hepes) for 8 hours at 37° C. At 1, 2, 4 and 8 hours, 100 μl of medium was collected from the lower compartment and replaced by fresh HBSS. At the end of the experiment (8 hours), the cell monolayers were washed three times with PBS and TEER was measured.

H1299 cells [3] = test: Internalization of covalent peptide-peroxidase conjugates; assay type: cell-based, human; details: H1299, 0.2 μg/ml conjugate, 2 hours
Outline: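 Peptides coupled via C-terminal cysteine to maleimide-activated peroxidase; uncoupled peptide removed by ultrafiltration. H1299 cells incubated 2 h with increasing conjugate concentrations, washed, lysed; internalized peptide quantified from lysate peroxidase against a conjugate standard curve, as pg/10^3 cells.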

[4] = ELISA fixation of biotinylated peptides on sensitized plates; assay type: binding; details: read-out: avidity (Kd), quantity of peptides necessary to obtain 50% fixation, Chondroitin A; Table 5
H1299 cells [5] = test: Inhibition of peptide-peroxidase internalization by drugs or 4° C.; assay type: cell-based, human; details: peptide-peroxidase 0.2 μg/ml, 2 hours
Protocol: To understand the biological mechanisms whereby the peptides penetrate into the cells and their compartmentalization, experiments are done with drugs whose action on certain cell compartments is specific. The peptide-peroxidases were incubated with H1299 cells at a concentration of 0.2 μg/ml for 2 hours in the presence, or not, of a drug. The cells were lysed, and the peroxidase dosed in the cellular lysate.

[6] = ELISA fixation of biotinylated peptides on sensitized plates; assay type: binding; details: read-out: avidity (Kd), quantity of peptides necessary to obtain 50% fixation, Chondroitin C; Table 5
HeLa = test: Internalization of covalent peptide-peroxidase conjugates; assay type: cell-based, human; details: 2 hours
Outline: (§4)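 Peptides coupled via C-terminal cysteine to maleimide-activated peroxidase, free peptide removed by ultrafiltration. Cells incubated 2 h with 0.2 μg/ml conjugate; peroxidase dosed in lysates, expressed as pg/10^3 cells.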

[7] = system: gram-positive and gram-negative bacterial strains; test: Antibacterial activity of cationic peptides, summary over strains; assay type: cell-based; details: summary of Table 29
Protocol: (§5) The gram-positive bacterial strains are: Enterococcus faecalis (ATCC 29212), and Staphylococcus aureus (ATCC 25923) and the gram-negative strains are: Escherichia coli (ATCC 25922), Pseudomonas aeruginosa (ATCC 27853) and Salmonella typhimurim (clinical isolate), Salmonella typhiTy2 (WHO). The bacteria are cultured with shaking all night at 37° C., then recultured at a dilution of 1:50 in some fresh Luria-Bertani (LB) medium for 2 hours. The bacterial concentration is adjusted to […], and 50 μl is distributed in 96-well plates with an equal volume of peptides diluted half and half (256-0.5 μg/ml) in LB medium. […] To determine the minimum bactericide concentration, 10 μl from each well is spread on gelose plates in LB medium.
However, when peptide HPB13 (SEQ ID NO: 38) is coupled with peptide SEQ ID NO: 24, it enhances its activity by a factor of 50 to 100 (peptide SEQ ID NO: 45). […] None these peptides are active on gram-positive bacteria.

[8] = ELISA fixation of biotinylated peptides on sensitized plates; assay type: binding; details: read-out: avidity (Kd), quantity of peptides necessary to obtain 50% fixation, Chondroitin B; Table 5
3T3 = test: Internalization of covalent peptide-peroxidase conjugates; assay type: cell-based, mouse; details: 2 hours
Outline: as §4

[9] = system: Salmonella typhiTy2 (WHO); test: microbe, parasite or virus in culture; assay type: cell-based, S. typhi-Ty2; details: S. typhi-Ty2
Protocol: as §5
(§6) The results are expressed as the peptide concentration in MBC (μM).

[10] = mouse, in vivo, iv
Protocol: as §7, §8

[11] = system: Enterococcus faecalis (ATCC 29212); test: microbe, parasite or virus in culture; assay type: cell-based; details: ATCC 29212
Protocol: as §5, §6

[12] = system: Pseudomonas aeruginosa (ATCC 27853); test: microbe, parasite or virus in culture; assay type: cell-based; details: ATCC 27853
Protocol: as §5, §6

[13] = system: Escherichia coli (ATCC 25922); test: microbe, parasite or virus in culture; assay type: cell-based; details: ATCC 25922; read-out: MBC
Protocol: as §5, §6

[14] = system: Staphylococcus aureus (ATCC 25923); test: microbe, parasite or virus in culture; assay type: cell-based; details: ATCC 25923
Protocol: as §5, §6

[15] = system: Salmonella typhimurim (clinical isolate); test: Antibacterial activity of cationic peptides (MBC); assay type: cell-based; details: S. typhimurium
Protocol: as §5, §6

[16] = system: Escherischia coli (ATCC25922); test: Activity of lysozyme coupled to peptides (MBC); assay type: cell-based, Escherichia coli; details: E. coli
Protocol: The […] bacterial strain Escherischia coli (ATCC25922) is cultured until the semi-logarithmic phase in Luria-Bertani (LB) medium. The bacteria are collected by centrifugation and resuspended in 1% bacto-peptone medium at a concentration of 5×10^5 cfu/ml (colony forming unit/ml). Lysozyme or the peptide-lysozyme conjugates are diluted half and half (256 to 0.5 μg/ml) in bacto-peptone medium, and 50 μl is distributed in 96-well plates. 50 μl of the bacterial dilution is then added to each well. After 16 hours of incubation at 37° C., 10 μl from each well is smeared on gelose plates in LB medium.
Table 28 reports the inhibition of the growth of E. coli (MBC μg/ml).

## COc1cccc2c1C(=O)c1c(O)c3c(c(O)c1C2=O)C[C@@](O)(C(=O)CO)C[C@@H]3O[C@H]1C[C@H](N)[C@H](O)[C@H](C)O1 [Doxorubicin (natural), Doxorubicin]
HH9
  IC50: 0.3 µM
H1299
  IC50: 0.3 µM
B16.F10
  IC50: 0.1 µM
MCF7R
  IC50: 200 µM
K562 R
  IC50: 3 µM
HH9 tumors
  tumor growth inhibition: 79%
[1]; Exp. 1: 600 μg in all
  Weight loss: 31* %
[1]; Exp. 1: 600 μg in all, listed as natural doxorubicin
  Weight loss: 31%
[1]; Exp. 1: 600 μg of doxorubicin or equivalent in all
  Weight of the mice: 16.06
[1]; Exp. 2: 400 μg in all
  Weight loss: 15%
[1]; Exp. 2: 400 μg of doxorubicin or equivalent in all
  Weight of the mice: 26.7

## GKRKKKGKLGKKRDP [SEQ ID NO: 30]
[2]
  Kd: 0.054 µM
Caco-2 cell monolayers
  TEER after incubation: 145 Ω · cm^2
H1299 cells [3]; Table 9
  Internalization of Peptide-peroxidase: 22.5 pg/10^3 cells
H1299 cells [3]; Table 9B
  Internalization of Peptide-peroxidase: 63.3 pg/10^3 cells
[4]
  Kd: 0.078 µM
H1299 cells [5]; Ammonium chloride (50 mM)
  percentage inhibition of peptide internalization: 70%
H1299 cells [5]; Chloroquin (100 μM)
  percentage inhibition of peptide internalization: 79%
H1299 cells [5]; Genistein (200 μM)
  percentage inhibition of peptide internalization: 68%
H1299 cells [5]; Sodium chloride (80 mM)
  percentage inhibition of peptide internalization: 69%
H1299 cells [5]; Temperature (4° C.)
  percentage inhibition of peptide internalization: 100%
[6]
  Kd: 0.019 µM
HeLa; Table 9, 0.2 μg/ml conjugate
  Internalization of Peptide-peroxidase: 11 pg/10^3 cells
HeLa; Table 9B, 0.2 μg/ml conjugate
  Internalization of Peptide-peroxidase: 3.6 pg/10^3 cells
[7]
  bactericide / anti-microbial activity: no anti-microbial activity
[8]
  Kd: 0.058 µM
3T3; Table 9, 0.2 μg/ml conjugate
  Internalization of Peptide-peroxidase: 48.8 pg/10^3 cells
3T3; Table 9B, 0.2 μg/ml conjugate
  Internalization of Peptide-peroxidase: 44.2 pg/10^3 cells

## KHLKKHLKKHLK [SEQ ID NO: 38]
[9]
  MBC: >170 µM
[10]
  Weight of the mice: 30
[11]
  MBC: >170 µM
[12]
  MBC: >170 µM
[13]
  MBC: >170 µM
[14]
  MBC: >170 µM
[15]
  MBC: >170 µM

## Natural lysozyme: lysozyme, a muraminidase, unconjugated
[16]
  minimal bactericide concentration (MBC), inhibits 75% of the growth: >256 mg/L
